{"source": "paper PMC2921628", "about": "(Biochemistry, 2010)", "key": {"cdk5/p25 [1]": {"target": "T1, cdk5/p25 (Homo sapiens, UniProt Q00535)", "T1 sequence (Q00535 whole entry, species assumed)": "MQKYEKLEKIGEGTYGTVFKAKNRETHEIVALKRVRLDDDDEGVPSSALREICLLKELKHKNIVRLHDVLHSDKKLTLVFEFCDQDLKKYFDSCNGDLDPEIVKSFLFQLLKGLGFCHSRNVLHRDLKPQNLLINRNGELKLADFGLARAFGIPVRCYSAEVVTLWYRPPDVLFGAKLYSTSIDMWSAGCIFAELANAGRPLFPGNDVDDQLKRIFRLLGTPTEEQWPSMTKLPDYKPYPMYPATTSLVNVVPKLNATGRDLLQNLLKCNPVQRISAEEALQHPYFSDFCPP", "T1 sequence (Q15078 99-307 partner limits assumed, species assumed)": "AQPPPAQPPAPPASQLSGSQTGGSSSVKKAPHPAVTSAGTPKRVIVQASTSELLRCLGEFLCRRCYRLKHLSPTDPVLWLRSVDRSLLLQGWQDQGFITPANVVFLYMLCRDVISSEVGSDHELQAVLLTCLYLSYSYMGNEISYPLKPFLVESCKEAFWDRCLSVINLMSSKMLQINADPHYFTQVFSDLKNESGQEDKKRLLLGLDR", "experiment": "Influence of D2O on inhibitor", "type": "biochemical", "details": "10 µM ATP, saturating H1P; data not shown"}, "cdk5/p25 [2]": {"target": "T1, cdk5/p25", "experiment": "Inhibition studies with substrate analogues and product ADP at 0.2 mM MgCl2", "type": "biochemical", "details": "0.2 mM Mg^2+"}, "[3]": {"details": "cited from earlier work"}, "cdk5/p25 [4]": {"target": "T1, cdk5/p25", "experiment": "Initial velocity kinetic analysis of cdk5/p25-catalyzed H1P phosphorylation", "type": "biochemical"}, "[5]": {"details": "versus variable substrate ATP (H1P fixed)"}, "[6]": {"details": "versus variable substrate H1P (ATP fixed)"}}, "note": "Read-outs that look alike come from different tables or passages of the source."}
{"molecule": "Nc1ncnc2c1ncn2[C@@H]1O[C@H](COP(=O)(O)O)[C@@H](O)[C@H]1O", "note": "[AMP]", "values": [{"measurement": "dissociation constant from E:H1P:AMP, lowering in 85% D2O compared with water", "setting": "cdk5/p25 [1]", "result": "approximately 1.5 fold"}, {"measurement": "enzyme forms that inhibitor binds", "setting": "cdk5/p25 [2]", "result": "binds to both E and E:B complex"}, {"measurement": "mechanism of inhibition", "setting": "cdk5/p25 [2]; [5]", "result": "competitive"}, {"measurement": "mechanism of inhibition", "setting": "cdk5/p25 [2]; [6]", "result": "noncompetitive"}]}
{"molecule": "Nc1ncnc2c1ncn2[C@@H]1O[C@H](COP(=O)(O)OP(=O)([O-])OP(=O)([O-])O)[C@@H](O)[C@H]1O.[Mg+2]", "note": "[MgATP]", "values": [{"measurement": "dissociation constant of MgATP", "setting": "[3]; used to calculate MgATP and free Mg^2+ concentrations", "result": 14.3, "unit": "µM"}, {"measurement": "hill coefficient", "setting": "cdk5/p25 [4]; MgATP dependence of (kcat)H1P at 0.2 mM free Mg^2+ (Figure 1B)", "result": "1.8 ± 0.1"}, {"measurement": "Kd", "setting": "cdk5/p25 [4]; read-out: KATP (KMgATP), 0.2 mM free Mg^2+", "result": "60 ± 20", "unit": "µM"}, {"measurement": "Kd", "setting": "cdk5/p25 [4]; read-out: KATP (KMgATP), 2.5 mM free Mg^2+", "result": "6.1 ± 1.5", "unit": "µM"}]}
{"molecule": "Nc1ncnc2c1ncn2[C@@H]1O[C@H](COP(=O)(O)OP(=O)(O)O)[C@@H](O)[C@H]1O", "note": "[ADP]", "values": [{"measurement": "mechanism of inhibition", "setting": "cdk5/p25 [2]; [5]", "result": "competitive"}, {"measurement": "mechanism of inhibition", "setting": "cdk5/p25 [2]; [6]", "result": "noncompetitive"}]}
{"molecule": "Nc1ncnc2c1ncn2[C@@H]1O[C@H](COP(=O)(O)OP(=O)(O)OP(=O)(O)O)[C@@H](O)[C@H]1O", "note": "[ATP, Adenosine 5’-triphosphate]", "values": [{"measurement": "pKa for protonation of the γ-phosphate of ATP", "setting": "[3]", "result": 4.6}, {"measurement": "Kd", "setting": "cdk5/p25 [4]; KATP (KMgATP), 2.5 mM free Mg^2+", "result": "6.1 ± 1.5", "unit": "µM"}]}
